Columns and labels:
Cas-1 in THP-1 cells = experiment: Imaging and flow cytometry in Cas-1 siRNA knockdown THP-1 cells; format: cell-based; conditions: caspase-1 siRNA, LPS 1 μg/mL and Nig 10 μM
Procedure: Cytotoxicity assay (CCK-8)
The cytotoxicity of FPy1 and YPy1 to THP-1 was evaluated by cell counting kit-8 (CCK-8). Briefly, the THP-1 cells were seeded in 96-well plates (5000 cells/well) and cultured at 37 °C for 24 hours. Various concentrations of FPy1 or YPy1 (0, 2.5, 5, 10, 20, 30, 40, 50 μM) in RPMI 1640 medium were added, and the cells were kept incubation for 12 hours. Then, the cells were washed with PBS and incubated in the 100 μL fresh medium with 10 μL CCK8 dye for an additional 2 hours. The absorbance was measured at 450 nm using a Tecan Infinite M1000 Multi-function microplate reader, and cell viability was calculated using the formula:
Cell viability (%) = [(OD test-ODblank)/(ODcontrol-ODblank)] ×100%
Intracellular imaging with FPy1 in THP-1 cells
THP-1 cells were seeded in dishes and cultured overnight. […] The fluorescence imaging was performed under the excitation at 514 nm with signal collection in the range […]
for 4 hours, the cells were further treated with Nig (10 μM) for 2 hours. […] The distribution of FPy1 was analyzed by collecting organelle-specific dye fluorescence at 495-525 nm with 488 nm excitation, while simultaneously detecting FPy1 fluorescence at 530-610 nm with 514 nm excitation. […]
Nucleus pulposus cells were isolated from discs and resuspended in 1mL DMEM/F12 medium containing 10 μM ITS-A. A total of […] were counted and transferred into centrifuge tubes. […]

[1] = system: Cas-1 in NP cell spheroids; experiment: Imaging in nucleus pulposus 3D cell spheroids; format: cell-based, rat; conditions: H2O2 2 mM 30, 60, 90 min; FPy1 5 μM; compared with 2D cells
Description: (§1) With advancing age, the prevalence of degenerative bone and joint disorders (DBJDs), such as intervertebral disc degeneration (IVDD) and osteoarthritis (OA), increases markedly among middle-aged and elderly individuals.[30] Chronic inflammation has been identified as the underlying cause of DBJDs. In particular, inflammasome-mediated pyroptosis has been recognized as a primary contributor to sustained inflammatory responses.[31] Consequently, pyroptosis-associated biomarkers represent promising indicators for the diagnosis and monitoring of DBJDs. IVDD, a chronic degenerative condition closely related to natural aging, has become one of the leading causes of disability worldwide.[32] […] The imaging results indicated a positive correlation between fluorescence intensity and H2O2-stimulation time (Fig. 4b). […] Encouraged by the promising imaging results of FPy1 in NP cells and cell spheroids, we further assessed its capability for imaging pytoptosis in vivo. […] Following intradiscal injection of FPy1, the fluorescence images of the tail modeling site were obtained from the dorsal aspect. […] Histological scoring result corroborated these findings, reflecting the same trends as with fluorescence imaging observed using FPy1 (Fig. S13b). […]
(§2) The cytotoxicity of FPy1 and YPy1 to THP-1 was evaluated by cell counting kit-8 (CCK-8). […]

[2] = system: Cas-1 in primary NP cells; experiment: Intracellular imaging in nucleus pulposus cells; format: cell-based, rat; conditions: H2O2 2 mM 30, 60, 90 min; FPy1 5 μM 1 h
Description: as §1, §2

–FLTDG– [FPy1, RhoB donor, hNR quencher]
fluorescence intensity in Si-Casp1 group (flow cytometry) (Cas-1 in THP-1 cells): lower than that in the Si-Scramble group | intracellular fluorescence intensity in Si-Casp1 group (confocal) (Cas-1 in THP-1 cells; FPy1 5 μM): significantly lower than that in the Si-Scramble group | fluorescence enhancement in NP spheroids [1]: the fluorescence enhancement in the spheroids was more pronounced | intracellular fluorescence intensity in NP cells [2]: increased with the duration of H2O2 stimulation

From publication PMC12598616, “Design and optimization of caspase-1-responsive fluorescent probes for pyroptosis imaging and anti-pyroptosis drug screening” (Chemical Science, 2025)
